Assay: mn = molality of the nth substance listed, in mol/kg
Details: 101 kPa, Liquid; for molar conductivity: Alternating current cell with electrodes; for mass density: Vibrating tube method

Cc1cccc(C(=O)O)c1[O-].[Na+] [sodium 2-hydroxy-3-methylbenzoate] + O
Details | mass density, 298.15 K [kg/m3] | molar conductivity, 278.15 K [S·m2/mol] | molar conductivity, 283.15 K [S·m2/mol] | molar conductivity, 288.15 K [S·m2/mol] | molar conductivity, 293.15 K [S·m2/mol] | molar conductivity, 298.15 K [S·m2/mol] | molar conductivity, 303.15 K [S·m2/mol] | molar conductivity, 308.15 K [S·m2/mol] | molar conductivity, 313.15 K [S·m2/mol]
m1 = 0.0001789 | – | 0.004702 | 0.005436 | 0.006213 | 0.007035 | 0.007891 | 0.008781 | 0.009702 | 0.01065
m1 = 0.0004159 | – | 0.004659 | 0.005386 | 0.006159 | 0.006975 | 0.007824 | 0.008709 | 0.009625 | 0.01056
m1 = 0.0007115 | – | 0.004632 | 0.005354 | 0.006119 | 0.006928 | 0.007773 | 0.008653 | 0.009562 | 0.01049
m1 = 0.001003 | – | 0.004611 | 0.00533 | 0.006091 | 0.006896 | 0.007731 | 0.008606 | 0.009511 | 0.01044
m1 = 0.001322 | – | 0.004591 | 0.005306 | 0.00606 | 0.006862 | 0.007698 | 0.00857 | 0.00947 | 0.0104
m1 = 0.001698 | – | 0.004566 | 0.005277 | 0.006032 | 0.00683 | 0.007665 | 0.008535 | 0.009432 | 0.01036
m1 = 0.002088 | – | 0.004547 | 0.005256 | 0.006008 | 0.006803 | 0.007632 | 0.008498 | 0.009395 | 0.01031
m1 = 0.002646 | – | 0.004526 | 0.005232 | 0.005981 | 0.006772 | 0.007599 | 0.008457 | 0.009327 | 0.01024
m1 = 0.003288 | – | 0.004504 | 0.005206 | 0.005951 | 0.006738 | 0.007542 | 0.008399 | 0.009286 | 0.0102
m1 = 0.004113 | – | 0.004483 | 0.005178 | 0.005905 | 0.006688 | 0.007504 | 0.008356 | 0.00924 | 0.01015
m1 = 0.005007 | 997.408 | 0.004457 | 0.00514 | 0.005873 | 0.00665 | 0.007462 | 0.008307 | 0.009184 | 0.01009
m1 = 0.09201 | 1003.59 | – | – | – | – | – | – | – | –

Cc1ccc(C(=O)[O-])c(O)c1.[Na+] [sodium 2-hydroxy-4-methylbenzoate] + O
Details | mass density, 298.15 K [kg/m3] | molar conductivity, 278.15 K [S·m2/mol] | molar conductivity, 283.15 K [S·m2/mol] | molar conductivity, 288.15 K [S·m2/mol] | molar conductivity, 293.15 K [S·m2/mol] | molar conductivity, 298.15 K [S·m2/mol] | molar conductivity, 303.15 K [S·m2/mol] | molar conductivity, 308.15 K [S·m2/mol] | molar conductivity, 313.15 K [S·m2/mol]
m1 = 0.0008766 | – | 0.004463 | 0.005159 | 0.005899 | 0.006679 | 0.007495 | 0.008345 | 0.009213 | 0.01012
m1 = 0.001205 | – | 0.004451 | 0.005145 | 0.00588 | 0.006648 | 0.007462 | 0.008308 | 0.009184 | 0.01008
m1 = 0.001572 | – | 0.004436 | 0.005122 | 0.005855 | 0.006629 | 0.007439 | 0.008283 | 0.009158 | 0.01005
m1 = 0.001976 | – | 0.004416 | 0.005105 | 0.005835 | 0.006608 | 0.007414 | 0.008258 | 0.009136 | 0.01003
m1 = 0.002453 | – | 0.004401 | 0.005087 | 0.005815 | 0.006584 | 0.007387 | 0.008225 | 0.009092 | 0.009964
m1 = 0.00301 | – | 0.004382 | 0.005065 | 0.00579 | 0.006555 | 0.007356 | 0.008178 | 0.009044 | 0.009933
m1 = 0.003696 | – | 0.004364 | 0.005044 | 0.005765 | 0.006518 | 0.007314 | 0.008146 | 0.009009 | 0.009892
m1 = 0.004538 | – | 0.004345 | 0.005022 | 0.005734 | 0.006493 | 0.007285 | 0.008112 | 0.008969 | 0.009844
m1 = 0.005464 | 997.441 | 0.004332 | 0.004993 | 0.005707 | 0.006462 | 0.007251 | 0.008073 | 0.008927 | 0.009798
m1 = 0.09872 | 1004.12 | – | – | – | – | – | – | – | –

O=C([O-])c1ccccc1.[Na+] [sodium benzoate] + O
Details | mass density, 298.15 K [kg/m3] | molar conductivity, 278.15 K [S·m2/mol] | molar conductivity, 283.15 K [S·m2/mol] | molar conductivity, 288.15 K [S·m2/mol] | molar conductivity, 293.15 K [S·m2/mol] | molar conductivity, 298.15 K [S·m2/mol] | molar conductivity, 303.15 K [S·m2/mol] | molar conductivity, 308.15 K [S·m2/mol] | molar conductivity, 313.15 K [S·m2/mol]
m1 = 0.0002136 | – | 0.004828 | 0.005584 | 0.006384 | 0.007233 | 0.00812 | 0.009043 | 0.01 | 0.01098
m1 = 0.0004649 | – | 0.00479 | 0.005542 | 0.006339 | 0.007182 | 0.008063 | 0.008982 | 0.009936 | 0.01091
m1 = 0.0007334 | – | 0.004765 | 0.005514 | 0.006308 | 0.007149 | 0.008027 | 0.00894 | 0.009881 | 0.01085
m1 = 0.0009986 | – | 0.004746 | 0.005493 | 0.006283 | 0.007122 | 0.007986 | 0.008891 | 0.009829 | 0.0108
m1 = 0.001299 | – | 0.00473 | 0.005474 | 0.006253 | 0.007089 | 0.007958 | 0.00886 | 0.009801 | 0.01078
m1 = 0.0016 | – | 0.004708 | 0.005448 | 0.006234 | 0.007064 | 0.007933 | 0.008837 | 0.00977 | 0.01073
m1 = 0.001996 | – | 0.00469 | 0.005428 | 0.006211 | 0.007037 | 0.007901 | 0.008801 | 0.009733 | 0.01071
m1 = 0.002488 | – | 0.004671 | 0.005407 | 0.00619 | 0.00701 | 0.007872 | 0.00877 | 0.009663 | 0.01063
m1 = 0.003107 | – | 0.004649 | 0.00538 | 0.006164 | 0.006978 | 0.007811 | 0.008706 | 0.009625 | 0.01059
m1 = 0.003832 | – | 0.004634 | 0.005362 | 0.006129 | 0.006945 | 0.007796 | 0.008683 | 0.009598 | 0.01055
m1 = 0.00495 | 997.26 | 0.004604 | 0.00532 | 0.006084 | 0.006895 | 0.007742 | 0.008623 | 0.009539 | 0.01048
m1 = 0.08466 | 1001.94 | – | – | – | – | – | – | – | –
